Results on one compound are retold here after publication PMC8997832, “Genetic Engineering Production of Ethyl Carbamate Hydrolase and Its Application in Degrading Ethyl Carbamate in Chinese Liquor” (Foods, 2022).

For this test, the system named is T1, ethyl carbamate hydrolase (ECH; AcECH).
T1 construct: codon-optimized synthetic gene in pET24b (NdeI/XhoI), C-terminal His-tag kept, E. coli BL21(DE3), Ni-NTA purified; about 33 kDa by SDS-PAGE
Description: Berthelot indophenol ammonia assay, […] nm; Lineweaver-Burk. In kind it is biochemical, Acinetobacter calcoaceticus. The settings on record: free enzyme; 5-30 mM EC; standard assay 70 °C, pH 7.0 (not restated for kinetics).

As to `CCOC(N)=O` [EC, ethyl carbamate], the Km worked out at 9.38 mM.
